Data: US20250325534A1, “MICROBIOCIDAL TETRAHYDROISOQUINOLINE DERIVATIVES” (SYNGENTA CROP PROTECTION AG, priority 2021, published 2025)

Each molecule was assayed on Mycosphaerella graminicola (assay: Mycosphaerella graminicola (Septoria tritici) / liquid culture (Septoria blotch)). Details: Zymoseptoria tritici, 96 h, photometrically 4-5 days after application, read-out: control of Mycosphaerella graminicola.
Type: cell-based
Procedure: Example B19: Mycosphaerella graminicola (Septoria tritici)/Liquid Culture (Septoria Blotch) Conidia of the fungus from cryogenic storage are directly mixed into a nutrient broth (potato dextrose broth). After placing a DMSO solution of test compound into a microtiter plate (96-well format), the nutrient broth containing the fungal spores is added. The test plates are incubated at 24° C. and the inhibition of growth is determined photometrically 4-5 days after application.

Row | Structure (SMILES) | inhibition of growth at 20 ppm [%]
1 | COc1ccc2c(c1)[C@@H](c1cnn(C)c1)CN(C(=O)c1cc(-c3ccc(F)cc3F)on1)[C@@H]2C (racemic) [Compound P-217, [5-(2,4-difluorophenyl)isoxazol-3-yl]-[rac-(1R,4S)-6-methoxy-1-methyl-4-(1-methylpyrazol-4-yl)-3,4-dihydro-1H-isoquinolin-2-yl]methanone] | ≥ 80
2 | Cc1c([C@H]2CN(C(=O)c3cc(-c4ccc(F)cc4F)on3)[C@@H](C)c3ccccc32)cnn1C (racemic) [Compound P-242, [5-(2,4-difluorophenyl)isoxazol-3-yl]-[rac-(1S,4S)-4-(1,5-dimethylpyrazol-4-yl)-1-methyl-3,4-dihydro-1H-isoquinolin-2-yl]methanone] | ≥ 80
3 | C[C@H]1c2ccc(O)cc2[C@@H](c2cnn(C)c2)CN1C(=O)c1cc(-c2ccc(F)cc2F)on1 (racemic) [Compound P-245, [5-(2,4-difluorophenyl)isoxazol-3-yl]-[rac-(1S,4S)-6-hydroxy-1-methyl-4-(1-methylpyrazol-4-yl)-3,4-dihydro-1H-isoquinolin-2-yl]methanone] | ≥ 80
4 | C[C@@H]1c2ccccc2[C@](C)(c2cnn(C)c2)CN1C(=O)c1cc(-c2ccc(F)cc2F)on1 (single isomer, unassigned) [Compound P-7] | ≥ 80
5 | Cn1cc(C2CN(C(=O)c3cc(-c4ccc(S(C)(=O)=O)cc4F)on3)Cc3ccccc32)cn1 (centres unmarked) [Compound P-20, [5-(2-fluoro-4-methylsulfonyl-phenyl)isoxazol-3-yl]-[4-(1-methylpyrazol-4-yl)-3,4-dihydro-1H-isoquinolin-2-yl]methanone] | ≥ 80
6 | Cn1cc(C2CN(C(=O)c3cc(-c4ccc(F)cc4F)on3)Cc3cc(-c4ccccc4)ccc32)cn1 (centres unmarked) [Compound P-21, [5-(2,4-difluorophenyl)isoxazol-3-yl]-[4-(1-methylpyrazol-4-yl)-7-phenyl-3,4-dihydro-1H-isoquinolin-2-yl]methanone] | ≥ 80
7 | CC1c2ccc(OCC(F)(F)F)cc2C(C)(c2cnn(C)c2)CN1C(=O)c1cc(-c2ccccc2)on1 (centres unmarked) [Compound P-27, [1,4-dimethyl-4-(1-methylpyrazol-4-yl)-6-(2,2,2-trifluoroethoxy)-1,3-dihydroisoquinolin-2-yl]-(5-phenylisoxazol-3-yl)methanone] | ≥ 80
8 | CC1c2ccc(OC(F)F)cc2C(C)(c2cnn(C)c2)CN1C(=O)c1cc(-c2ccccc2)on1 (centres unmarked) [Compound P-28, [6-(difluoromethoxy)-1,4-dimethyl-4-(1-methylpyrazol-4-yl)-1,3-dihydroisoquinolin-2-yl]-(5-phenylisoxazol-3-yl)methanone] | ≥ 80
9 | CC1c2ccc(O)cc2C(C)(c2cnn(C)c2)CN1C(=O)c1cc(-c2ccccc2)on1 (centres unmarked) [Compound P-29, [6-hydroxy-1,4-dimethyl-4-(1-methylpyrazol-4-yl)-1,3-dihydroisoquinolin-2-yl]-(5-phenylisoxazol-3-yl)methanone] | ≥ 80
10 | CCC1c2ccccc2C(c2cnn(C)c2)CN1C(=O)c1cc(-c2ccccc2)on1 (centres unmarked) [Compound P-37, [1-ethyl-4-(1-methylpyrazol-4-yl)-3,4-dihydro-1H-isoquinolin-2-yl]-(5-phenylisoxazol-3-yl)methanone] | ≥ 80
11 | COC(=O)C1c2ccccc2C(c2cnn(C)c2)CN1C(=O)c1cc(-c2ccccc2)on1 (centres unmarked) [Compound P-41, methyl 4-(1-methylpyrazol-4-yl)-2-(5-phenylisoxazole-3-carbonyl)-3,4-dihydro-1H-isoquinoline-1-carboxylate] | ≥ 80
12 | Cn1cc(C2CN(C(=O)c3cc(-c4ccc(F)cc4F)on3)C(c3ccccc3)c3ccccc32)cn1 (centres unmarked) [Compound P-43, [5-(2,4-difluorophenyl)isoxazol-3-yl]-[4-(1-methylpyrazol-4-yl)-1-phenyl-3,4-dihydro-1H-isoquinolin-2-yl]methanone] | ≥ 80
13 | CCCC1c2ccccc2C(c2cnn(C)c2)CN1C(=O)c1cc(-c2ccc(F)cc2F)on1 (centres unmarked) [Compound P-59, [5-(2,4-difluorophenyl)isoxazol-3-yl]-[4-(1-methylpyrazol-4-yl)-1-propyl-3,4-dihydro-1H-isoquinolin-2-yl]methanone] | ≥ 80
14 | COC(=O)c1ccc2c(c1)C(c1cnn(C)c1)CN(C(=O)c1cc(-c3ccc(F)cc3F)on1)C2 (centres unmarked) [Compound P-61, methyl 2-[5-(2,4-difluorophenyl)isoxazole-3-carbonyl]-4-(1-methylpyrazol-4-yl)-3,4-dihydro-1H-isoquinoline-6-carboxylate] | ≥ 80
15 | COc1ccc2c(c1)C(c1cnn(C)c1)CN(C(=O)c1cc(-c3ccc(F)cc3F)on1)C2 (centres unmarked) [Compound P-66, [5-(2,4-difluorophenyl)isoxazol-3-yl]-[6-methoxy-4-(1-methylpyrazol-4-yl)-3,4-dihydro-1H-isoquinolin-2-yl]methanone] | ≥ 80
16 | Cn1cc(C2CN(C(=O)c3ncc(C4CC4)o3)Cc3ccccc32)cn1 (centres unmarked) [Compound P-68, (5-cyclopropyloxazol-2-yl)-[4-(1-methylpyrazol-4-yl)-3,4-dihydro-1H-isoquinolin-2-yl]methanone] | ≥ 80
17 | Cn1cc(C2CN(C(=O)c3coc(-c4ccc(F)cc4)n3)Cc3ccccc32)cn1 (centres unmarked) [Compound P-69, [2-(4-fluorophenyl)oxazol-4-yl]-[4-(1-methylpyrazol-4-yl)-3,4-dihydro-1H-isoquinolin-2-yl]methanone] | ≥ 80
18 | Cn1cc(C2CN(C(=O)c3cc(C(C)(C)C)no3)Cc3ccccc32)cn1 (centres unmarked) [Compound P-83, (3-tert-butylisoxazol-5-yl)-[4-(1-methylpyrazol-4-yl)-3,4-dihydro-1H-isoquinolin-2-yl]methanone] | ≥ 80
19 | CCCc1cc(C(=O)N2Cc3ccccc3C(c3cnn(C)c3)C2)no1 (centres unmarked) [Compound P-84, [4-(1-methylpyrazol-4-yl)-3,4-dihydro-1H-isoquinolin-2-yl]-(5-propylisoxazol-3-yl)methanone] | ≥ 80
20 | CCC(C)c1cc(C(=O)N2Cc3ccccc3C(c3cnn(C)c3)C2)on1 (centres unmarked) [Compound P-88, [4-(1-methylpyrazol-4-yl)-3,4-dihydro-1H-isoquinolin-2-yl]-(3-sec-butylisoxazol-5-yl)methanone] | ≥ 80
21 | Cn1cc(C2CN(C(=O)c3noc(-c4cc(F)ccc4F)n3)Cc3ccccc32)cn1 (centres unmarked) [Compound P-90, [5-(2,5-difluorophenyl)-1,2,4-oxadiazol-3-yl]-[4-(1-methylpyrazol-4-yl)-3,4-dihydro-1H-isoquinolin-2-yl]methanone] | ≥ 80
22 | Cn1cc(C2CN(C(=O)c3cc(-c4ccccc4)on3)Cc3cc(C(F)(F)F)ccc32)cn1 (centres unmarked) [Compound P-103, [4-(1-methylpyrazol-4-yl)-7-(trifluoromethyl)-3,4-dihydro-1H-isoquinolin-2-yl]-(5-phenylisoxazol-3-yl)methanone] | ≥ 80
23 | Cn1cc(C2CN(C(=O)c3cc(-c4ccc(F)cc4F)on3)Cc3ccc(C(F)(F)F)cc32)cn1 (centres unmarked) [Compound P-112, [5-(2,4-difluorophenyl)isoxazol-3-yl]-[4-(1-methylpyrazol-4-yl)-6-(trifluoromethyl)-3,4-dihydro-1H-isoquinolin-2-yl]methanone] | ≥ 80
